From US10920198B2, “Delta133p53beta and delta133p53gamma isoforms are biomarkers of cancer stem cells” (Centre National de la Recherche Scientifique (CNRS), priority 2015, dated 2021)

Experiments:
Type in all cases: cell-based, human
[1] = test system: MCF-7 cells; assay: Mammosphere formation in MCF-7 cells; conditions: 50 ng/ml/day for 7 days
Protocol: For mammosphere formation, 1000 cells/ml (500 cells/well) were plated in Ultra Low Cluster Plate, 24-well, Flat Bottom (Corning Inc) with MammoCult™ Medium enriched with MammoCult™ Proliferation Supplements, hydrocortisone and heparin (Stem Cell Technologies) and cultured for 15 days. For all mammosphere assays, at least three independent experiments for each condition were carried out and repeated 8-12 times. For self-renewal experiments, transfected cells were subjected to a first cycle of mammosphere formation. Upon 15 days of culture the created mammospheres were dissociated and cells were re-plated in identical conditions as for the first plating.

[2] = test system: c-Myc, Sox 2, Oct 3/4 and Nanog; assay: Expression of pluripotency/reprogramming factors in MCF-7 cells (RT-qPCR, western blot)
Excerpt: (§1) The following antibodies were used for immunoblotting: anti-c-Myc (9E10 mouse hybridoma clone), -Nanog (sc-81961, Santa Cruz Biotechnology), -Oct 3/4 (sc-8630, Santa Cruz Biotechnology), -Sox 2 (sc-17320, Santa Cruz Biotechnology), -p53 (DO-1; sc-126 Santa Cruz Biotechnology), -p53 Sapu (Vojtesek et al. 1995), -α-tubulin (clone DM1A, Sigma-Aldrich), -β-actin (clone AC-74 Sigma-Aldrich), -p21 (sc-397 Santa Cruz Biotechnology) and -Flag (clone M2; Sigma-Aldrich). Secondary HRP-conjugated antibodies were from GE Healthcare. For luminescence quantification, cells were serially diluted and incubated with 0.5 mM D-luciferin (Sigma). Luminescence was quantified with a Polarstar Omega instrument (BMG LABTECH).
(§2) Total RNA was extracted (Qiagen) and reverse transcription (RT) was performed with 1-5 μg of total RNA using the SuperScript® III Reverse Transcriptase (Life Technologies) at 50° C. Levels of different mRNAs were quantified by real-time qPCR on a LightCycler480 apparatus (Roche). Briefly, 20 ng cDNA was amplified using 0.168 μM of each primer, 0.2 μM of probe (Table 4) and 1× LightCycler® 480 Probes Master Mix (Roche) for the p53 isoforms, or commercially available primers (Qiagen) and 1× LightCycler® 480 Sybr Green Master Mix (Roche) for the other genes. Data were normalized to the internal standard TBP. The different primers used and their corresponding sequences have been previously described (Bourdon et al., 2005). For each single-well amplification reaction, a threshold cycle (Ct) was calculated by using the LightCycler480 program (Roche) in the exponential phase of amplification. Relative changes in gene expression were determined using the 2ΔΔCt method and reported relative to a control. All quantification studies were performed with at least three independent experiments, repeated twice, for each condition. Data are presented as the arithmetic mean±SEM.

[3] = test system: Δ133p53 (α, β and γ) isoforms; assay: Expression of Δ133p53 isoforms in MCF-7 cells (RT-qPCR, western blot); conditions: MCF-7, etoposide treatment; RT-qPCR and western blot
Excerpt: as §1
Total RNA was extracted (Qiagen) and reverse transcription (RT) was performed with 1-5 μg of total RNA using the SuperScript® III Reverse Transcriptase (Life Technologies) at 50° C. Levels of different mRNAs were quantified by real-time qPCR on a LightCycler480 apparatus (Roche). […] For each single-well amplification reaction, a threshold cycle (Ct) was calculated by using the LightCycler480 program (Roche) in the exponential phase of amplification. Relative changes in gene expression were determined using the 2ΔΔCt method and reported relative to a control. All quantification studies were performed with at least three independent experiments, repeated twice, for each condition. […]

[4] = test system: p53, p21; assay: Western blot of p53 and p21 in MCF-7 cells after etoposide; conditions: MCF-7, increasing concentrations of etoposide, 16 hours
Protocol: (§3) The human breast cancer cell lines MCF-7, MDA-MB 231 […] and […] were grown in MEM supplemented with 10% FCS, sodium pyruvate and glutamine. Following viral infection, cells were used after 24-48 h or subjected to selection with 2 μg/ml puromycin (InvivoGen) or 300 μg/ml hygromycin B (Invitrogen) for two days. Etoposide treatment was performed with final doses of 12.5, 25 and 50 ng/ml for 16 h or 50 ng/ml/day for 7 days. […] Secondary HRP-conjugated antibodies were from GE Healthcare. For luminescence quantification, cells were serially diluted and incubated with 0.5 mM D-luciferin (Sigma). Luminescence was quantified with a Polarstar Omega instrument (BMG LABTECH).

[5] = test system: c-Myc, Oct 3/4, Nanog and Sox 2; assay: Expression of pluripotency/reprogramming factors in MDA-MB-231 D3H2LN cells (RT-qPCR, western blot); conditions: MDA-MB-231 D3H2LN
Protocol: (§4) The human breast cancer cell lines MCF-7, MDA-MB 231 D3H2LN and C3LND were grown in MEM supplemented with 10% FCS, sodium pyruvate and glutamine. Following viral infection, cells were used after 24-48 h or subjected to selection with 2 μg/ml puromycin (InvivoGen) or 300 μg/ml hygromycin B (Invitrogen) for two days. Etoposide treatment was performed with final doses of 12.5, 25 and 50 ng/ml for 16 h or 50 ng/ml/day for 7 days.
as §1, §2

[6] = test system: Δ133p53 (α, β and γ) isoforms; assay: Expression of Δ133p53 isoforms in MDA-MB-231 D3H2LN cells after etoposide; conditions: not dose-dependent
Protocol: as §4, with “D3H2LN” left out, “C3LND” left out

[7] = test system: p53, p21; assay: Western blot of p53 and p21 in MDA-MB-231 D3H2LN cells after etoposide; conditions: MDA-MB-231 D3H2LN (p53 R280K), increasing concentrations of etoposide
Protocol: as §3

Structure (SMILES): COc1cc([C@@H]2c3cc4c(cc3[C@@H](O[C@@H]3O[C@@H]5CO[C@@H](C)O[C@H]5[C@H](O)[C@H]3O)[C@H]3COC(=O)[C@H]23)OCO4)cc(OC)c1O [etoposide, reference compound]
- mammosphere formation ([1]; Sh2-transduced MCF-7 cells): did not have any significant effect
- mammosphere formation ([1]; control MCF-7 cells (active TAp53)): significantly reduced
- c-Myc expression ([2]; MCF-7, increasing concentrations of etoposide, western blot and RT-qPCR): reduced
- Oct 3/4, Nanog and Sox 2 expression ([2]; MCF-7, increasing doses of etoposide, RT-qPCR): strongly up-regulated in a dose-dependent manner
- Δ133p53 isoforms expression [3]: strongly up-regulated in a dose-dependent manner
- TAp53α level [4]: stabilization
- p21 expression [4]: increased
- c-Myc expression ([5]; increasing concentrations of etoposide): significantly down-regulated
- expression of Nanog, Sox 2 and Oct 3/4 ([5]; incubation with etoposide): up-regulated
- expression of Δ133p53 isoforms [6]: up-regulated
- TAp53 expression [7]: did not affect
- p21 expression [7]: only weakly increased
